Measurements from article PMC7932537, “Quantitative profiling of protease specificity” (PLoS Computational Biology, 2021).

How the values were obtained:
MMP-2 [1] = test: Substrate phage display with NGS: relative probability (RP) of P3-P1' tetramer clusters; assay type: biochemical, human; conditions: MMP2;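 also: ratio of tetramer probability after protease selection to that in naive phage library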
MMP-2 [2] = biological target: T1, MMP-2 (Homo sapiens, UniProt P08253); test: K(obs) of individual phage substrates (set of 1369); assay type: biochemical; conditions: MMP2
T1 sequence (P08253 110-660): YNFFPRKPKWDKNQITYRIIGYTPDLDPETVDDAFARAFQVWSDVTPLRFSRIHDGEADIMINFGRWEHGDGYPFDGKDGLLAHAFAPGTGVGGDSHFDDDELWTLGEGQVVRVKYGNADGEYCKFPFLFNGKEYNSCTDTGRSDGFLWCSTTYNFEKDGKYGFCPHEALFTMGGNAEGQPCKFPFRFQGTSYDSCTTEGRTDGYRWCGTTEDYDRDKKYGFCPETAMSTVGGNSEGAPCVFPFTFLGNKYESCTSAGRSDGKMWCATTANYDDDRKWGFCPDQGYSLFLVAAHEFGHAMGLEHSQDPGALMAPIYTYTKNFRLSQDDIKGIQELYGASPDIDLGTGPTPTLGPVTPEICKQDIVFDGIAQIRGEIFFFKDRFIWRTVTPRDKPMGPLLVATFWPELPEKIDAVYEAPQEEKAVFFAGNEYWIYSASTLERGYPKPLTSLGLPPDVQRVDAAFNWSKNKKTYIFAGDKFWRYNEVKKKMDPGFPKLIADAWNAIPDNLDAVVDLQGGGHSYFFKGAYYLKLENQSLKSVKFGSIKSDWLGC

MMP-9 = MMP-9 (Homo sapiens, UniProt P14780); test: as above; assay type: biochemical; conditions: MMP9
[3] = RP of the P3-P1' tetramer contained in the substrate (substrate phage display with NGS)
[4] = individual phage substrates, set of 1369 peptides, cleavage position marked by hyphen in sequence
[5] = individual phage substrates, set of 1369 peptides, hyphen in sequence marks cleavage position
[6] = RP of the P3-P1' tetramer contained in the substrate
[7] = individual phage substrate of the set of 1369 peptides, cleavage position marked by '-'
[8] = individual phage substrate of the set of 1369 peptides, dash in the sequence marks the cleavage position
[9] = individual phage substrates, set of 1369 peptides, cleavage position marked by '-' in the sequence
[10] = individual phage substrates, set of 1369 peptides, '-' marks the cleavage position (P1-P1')
[11] = individual phage substrate from the set of 1369 peptides, cleavage position marked by the dash in the sequence
[12] = individual phage substrates, set of 1369 peptides, dash in sequence marks cleavage position

Sequence of MMP-9 (P14780 94-707): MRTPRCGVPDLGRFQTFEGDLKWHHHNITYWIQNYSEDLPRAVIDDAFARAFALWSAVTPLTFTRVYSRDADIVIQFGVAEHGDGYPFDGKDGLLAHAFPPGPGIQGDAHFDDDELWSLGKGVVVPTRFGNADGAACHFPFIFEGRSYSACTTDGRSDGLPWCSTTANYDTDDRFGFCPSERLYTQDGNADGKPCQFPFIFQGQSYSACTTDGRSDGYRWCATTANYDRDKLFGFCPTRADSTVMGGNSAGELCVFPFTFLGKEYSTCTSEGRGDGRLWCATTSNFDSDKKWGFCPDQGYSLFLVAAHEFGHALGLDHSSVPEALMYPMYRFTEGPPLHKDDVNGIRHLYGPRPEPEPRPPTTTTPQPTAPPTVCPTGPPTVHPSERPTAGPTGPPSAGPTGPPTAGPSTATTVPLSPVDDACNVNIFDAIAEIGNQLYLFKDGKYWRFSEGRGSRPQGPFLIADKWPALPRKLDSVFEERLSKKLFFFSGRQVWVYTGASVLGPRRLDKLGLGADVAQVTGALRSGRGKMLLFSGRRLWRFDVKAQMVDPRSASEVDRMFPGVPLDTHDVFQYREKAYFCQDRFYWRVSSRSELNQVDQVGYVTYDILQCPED

Row | Substance | relative probability (RP) (MMP-2 [1]; [3]) | Kobs (MMP-2 [2]; [4]) | Kobs (MMP-9; [5]) | relative probability (RP) (MMP-2 [1]; [6]) | Kobs (MMP-2 [2]; [7]) | Kobs (MMP-9; [8]) | also measured
1 | STVFH-MTASG | 5.168 | 0 M⁻¹ s⁻¹ | 1763.55 M⁻¹ s⁻¹ | – | – | – | –
2 | SKPNF-LTASG | – | – | – | 15.743 | 5889.62 M⁻¹ s⁻¹ | 3741.87 M⁻¹ s⁻¹ | –
3 | GTLAA-MSTAS | 30.6825 | 4205.91 M⁻¹ s⁻¹ | 0 M⁻¹ s⁻¹ | – | – | – | –
4 | SGVRF-LKGTA | 15.0438 | 5269.78 M⁻¹ s⁻¹ | 12792.1 M⁻¹ s⁻¹ | – | – | – | –
5 | RAPAS-LTASG | – | – | – | 36.4285 | 12792.1 M⁻¹ s⁻¹ | 12792.1 M⁻¹ s⁻¹ | –
6 | KMVYM-LTASG | 5.094 | 1561.44 M⁻¹ s⁻¹ | 3438.54 M⁻¹ s⁻¹ | – | – | – | –
7 | DLPAG-LTASG | – | – | – | 36.0156 | 12792.1 M⁻¹ s⁻¹ | 8321.48 M⁻¹ s⁻¹ | –
8 | GFAWS-LHTAS | – | – | – | 7.006 | 654.784 M⁻¹ s⁻¹ | 2916.17 M⁻¹ s⁻¹ | –
9 | SIHLA-LTASG | 11.3603 | 1561.44 M⁻¹ s⁻¹ | 171.876 M⁻¹ s⁻¹ | – | – | – | –
10 | KDYLH-LTASG | – | – | – | 0.4077 | 0 M⁻¹ s⁻¹ | 0 M⁻¹ s⁻¹ | –
11 | SGPSS-LFATA | – | – | – | 35.4913 | 12792.1 M⁻¹ s⁻¹ | 12792.1 M⁻¹ s⁻¹ | –
12 | GMPWS-VTASG | 0.3793 | 1513.13 M⁻¹ s⁻¹ | 6131.32 M⁻¹ s⁻¹ | – | – | – | –
13 | SGPRW-MKGTA | 32.3694 | 4205.91 M⁻¹ s⁻¹ | 7815.03 M⁻¹ s⁻¹ | – | – | – | –
14 | GTPYP-LRTAS | 30.8058 | 12792.1 M⁻¹ s⁻¹ | 12792.1 M⁻¹ s⁻¹ | – | – | – | –
15 | GLGLN-LTASG | 0.5789 | 355.093 M⁻¹ s⁻¹ | 231.616 M⁻¹ s⁻¹ | – | – | – | –
16 | GGYAN-LTTAS | 27.7486 | 5269.78 M⁻¹ s⁻¹ | 0 M⁻¹ s⁻¹ | – | – | – | –
17 | RYAQP-LTASG | 14.4283 | 4205.91 M⁻¹ s⁻¹ | 2409.72 M⁻¹ s⁻¹ | – | – | – | –
18 | RLYMN-ITASG | 0 | 0 M⁻¹ s⁻¹ | 0 M⁻¹ s⁻¹ | – | – | – | –
19 | VLPEP-LTASG | – | – | – | 26.8179 | 8941.32 M⁻¹ s⁻¹ | 6396.07 M⁻¹ s⁻¹ | –
20 | DRQLS-LTASG | – | – | – | 0.4979 | 84.609 M⁻¹ s⁻¹ | 0 M⁻¹ s⁻¹ | –

Row | Substance | relative probability (RP) (MMP-2 [1]; [3]) | Kobs (MMP-2 [2]; [4]) | Kobs (MMP-9; [5]) | relative probability (RP) (MMP-2 [1]; [6]) | Kobs (MMP-2 [2]; [7]) | Kobs (MMP-9; [8]) | also measured
21 | SGHQN-LMATA | 17.7487 | 7386.83 M⁻¹ s⁻¹ | 1561.44 M⁻¹ s⁻¹ | – | – | – | –
22 | SGVRH-VRATA | – | – | – | 9.5401 | 3850.82 M⁻¹ s⁻¹ | 12792.1 M⁻¹ s⁻¹ | –
23 | VPPRV-LTASG | – | – | – | 13.9079 | 799.117 M⁻¹ s⁻¹ | 2687.73 M⁻¹ s⁻¹ | –
24 | PCHLA-LTASG | – | – | – | 11.3603 | 1327.88 M⁻¹ s⁻¹ | 619.843 M⁻¹ s⁻¹ | –
25 | SGVSF-LQQTA | – | – | – | 5.918 | 1373.05 M⁻¹ s⁻¹ | 0 M⁻¹ s⁻¹ | –
26 | PKMSH-LTASG | – | – | – | 24.6165 | 2409.72 M⁻¹ s⁻¹ | 0 M⁻¹ s⁻¹ | –
27 | QRPAQ-LTASG | 32.8467 | 12792.1 M⁻¹ s⁻¹ | 12792.1 M⁻¹ s⁻¹ | – | – | – | –
28 | FDAQS-LTASG | – | – | – | 18.365 | 1711.63 M⁻¹ s⁻¹ | 874.197 M⁻¹ s⁻¹ | –
29 | SNLNS-TASGA | – | – | – | 0.4784 | 4205.91 M⁻¹ s⁻¹ | 4470.66 M⁻¹ s⁻¹ | –
30 | GSVMN-LTASG | 18.6016 | 3344.37 M⁻¹ s⁻¹ | 2409.72 M⁻¹ s⁻¹ | – | – | – | –
31 | VLWRA-LTASG | – | – | – | 22.4074 | 12792.1 M⁻¹ s⁻¹ | 12792.1 M⁻¹ s⁻¹ | –
32 | QSWYG-MTASG | 0.05309 | 1112.44 M⁻¹ s⁻¹ | 3741.87 M⁻¹ s⁻¹ | – | – | – | –
33 | GEFAA-LQTAS | 18.8584 | 2615.58 M⁻¹ s⁻¹ | 323.705 M⁻¹ s⁻¹ | – | – | – | –
34 | HTSNW-LTASG | – | – | – | 9.68 | 3079.62 M⁻¹ s⁻¹ | 451.441 M⁻¹ s⁻¹ | –
35 | VQQQG-LTASG | – | – | – | 6.401 | 3741.87 M⁻¹ s⁻¹ | 231.616 M⁻¹ s⁻¹ | –
36 | GWVSY-LKTAS | 20.2936 | 9740.44 M⁻¹ s⁻¹ | 0 M⁻¹ s⁻¹ | – | – | – | –
37 | PMVRW-LTASG | 25.891 | 12792.1 M⁻¹ s⁻¹ | 12792.1 M⁻¹ s⁻¹ | – | – | – | –
38 | GWMHE-LKTAS | – | – | – | – | – | – | Kobs (MMP-2 [2]; [9]): 0 M⁻¹ s⁻¹; Kobs (MMP-9; [10]): 0 M⁻¹ s⁻¹
39 | SGLQN-LMLTA | – | – | – | – | – | – | Kobs (MMP-2 [2]; [9]): 113.394 M⁻¹ s⁻¹; Kobs (MMP-9; [10]): 113.394 M⁻¹ s⁻¹
40 | YNVNY-LTASG | – | – | – | – | – | – | Kobs (MMP-2 [2]; [11]): 3964.21 M⁻¹ s⁻¹; Kobs (MMP-9; [12]): 201.585 M⁻¹ s⁻¹

Row | Substance | relative probability (RP) (MMP-2 [1]; [3]) | Kobs (MMP-2 [2]; [4]) | Kobs (MMP-9; [5]) | relative probability (RP) (MMP-2 [1]; [6]) | Kobs (MMP-2 [2]; [7]) | Kobs (MMP-9; [8]) | also measured
41 | SGTWR-LMLTA | – | – | – | – | – | – | Kobs (MMP-2 [2]; [11]): 0 M⁻¹ s⁻¹; Kobs (MMP-9; [12]): 27.918 M⁻¹ s⁻¹
42 | SGSFN-LTMTA | – | – | – | – | – | – | Kobs (MMP-2 [2]; [9]): 0 M⁻¹ s⁻¹; Kobs (MMP-9; [10]): 418.952 M⁻¹ s⁻¹
43 | FIARA-LTASG | – | – | – | – | – | – | Kobs (MMP-2 [2]; [9]): 12792.1 M⁻¹ s⁻¹; Kobs (MMP-9; [10]): 12792.1 M⁻¹ s⁻¹
44 | GNAMR-MVTAS | – | – | – | – | – | – | Kobs (MMP-2 [2]; [9]): 0 M⁻¹ s⁻¹; Kobs (MMP-9; [10]): 56.119 M⁻¹ s⁻¹
45 | GQHMR-LITAS | – | – | – | – | – | – | Kobs (MMP-2 [2]; [9]): 0 M⁻¹ s⁻¹; Kobs (MMP-9; [10]): 836.403 M⁻¹ s⁻¹
46 | RWPAW-LTASG | – | – | – | – | – | – | Kobs (MMP-2 [2]; [11]): 9740.44 M⁻¹ s⁻¹; Kobs (MMP-9; [12]): 8941.32 M⁻¹ s⁻¹
47 | SIPNA-LTASG | – | – | – | – | – | – | Kobs (MMP-2 [2]; [9]): 12792.1 M⁻¹ s⁻¹; Kobs (MMP-9; [10]): 9740.44 M⁻¹ s⁻¹
48 | HRPFG-LTASG | – | – | – | – | – | – | Kobs (MMP-2 [2]; [9]): 12792.1 M⁻¹ s⁻¹; Kobs (MMP-9; [10]): 12792.1 M⁻¹ s⁻¹
49 | SGPLA-VRTTA | – | – | – | – | – | – | Kobs (MMP-2 [2]; [9]): 12792.1 M⁻¹ s⁻¹; Kobs (MMP-9; [10]): 12792.1 M⁻¹ s⁻¹
50 | GEAWH-LFTAS | – | – | – | – | – | – | Kobs (MMP-2 [2]; [11]): 292.668 M⁻¹ s⁻¹; Kobs (MMP-9; [12]): 355.093 M⁻¹ s⁻¹
51 | GRIAL-LTTAS | – | – | – | – | – | – | Kobs (MMP-2 [2]; [9]): 7815.03 M⁻¹ s⁻¹; Kobs (MMP-9; [10]): 0 M⁻¹ s⁻¹
52 | GGSGA-LTSRF | – | – | – | – | – | – | Kobs (MMP-2 [2]; [11]): 4613.14 M⁻¹ s⁻¹; Kobs (MMP-9; [12]): 0 M⁻¹ s⁻¹
53 | SGPLS-QSTTA | – | – | – | – | – | – | Kobs (MMP-2 [2]; [9]): 1561.44 M⁻¹ s⁻¹; Kobs (MMP-9; [10]): 7815.03 M⁻¹ s⁻¹
54 | SGFSE-LTLTA | – | – | – | – | – | – | Kobs (MMP-2 [2]; [9]): 0 M⁻¹ s⁻¹; Kobs (MMP-9; [10]): 0 M⁻¹ s⁻¹
55 | GFAIS-MVTAS | – | – | – | – | – | – | Kobs (MMP-2 [2]; [9]): 113.394 M⁻¹ s⁻¹; Kobs (MMP-9; [10]): 84.609 M⁻¹ s⁻¹
56 | SKIRF-LTASG | – | – | – | – | – | – | Kobs (MMP-2 [2]; [11]): 5269.78 M⁻¹ s⁻¹; Kobs (MMP-9; [12]): 9740.44 M⁻¹ s⁻¹
57 | GGSGR-LVVRL | – | – | – | – | – | – | Kobs (MMP-2 [2]; [9]): 113.394 M⁻¹ s⁻¹; Kobs (MMP-9; [10]): 0 M⁻¹ s⁻¹
58 | NRPSA-LTASG | – | – | – | – | – | – | Kobs (MMP-2 [2]; [9]): 12792.1 M⁻¹ s⁻¹; Kobs (MMP-9; [10]): 12792.1 M⁻¹ s⁻¹
